A word on the IC50: it is the concentration needed to halve the response being measured.

Among the data in US20240140931A1, “TRICYCLIC COMPOUNDS AND USES THEREOF” (HUTCHMED LIMITED, priority 2021, published 2024) are IC50 values, retold here.

In assay [1] the test system is pERK1/2 (Thr202/Tyr204) in Miapaca2 cells. The assay is described as follows: Assay of intracellular pERK1/2 (Thr202/Tyr204) phosphorylation. It counts as cell-based. As for the experimental part: Example 3 Assay of Intracellular pERK1/2 (Thr202/Tyr204) Phosphorylation
1. Reagents and Materials • pERK1/2 (Thr202/Tyr204) HTRF kit: Cisbio, Cat #64ERKPEH; • Cell line: Miapaca2, ATCC, CRL-1420; • OptiPlate™-384-well plate: PerkinElmer, Cat #6007299; • 96-well plate: Corning, Cat #353072; • Instrument: EnVision2104, PerkinElmer.
2. Preparation of Reaction Solutions • The test compound was dissolved in DMSO and diluted with DMSO to 600.0 μM, and the compound was further 3-fold diluted with DMSO to: 600.0, 200.0, 66.7, 22.2, 7.4, 2.5, 0.82 and 0.27 μM. Then 10 μL of the compound at different dilution concentrations was added to 190 μL of a DMEM medium to prepare a 10× test compound, wherein DMSO was at the concentration of 5% (DMSO was at the final concentration of 0.5%). • 1× cell lysis buffer: 4× cell lysis stock solution (provided by the kit) was diluted 4-fold with deionized water, and then 1% 100× blocking stock solution (provided by the kit) was added thereto. • pERK1/2 detection solution (prepared just before use): the pERK1/2 d2 antibody (provided by the kit) and pERK1/2 Cryptate antibody (provided by the kit) were diluted with the detection solution (provided by the kit) at a ratio of 1:1:38.
3. Experimental Steps • Miapaca2 cells were inoculated into a 96-well plate at a density of 10000 cells/well at 90 μL/well and cultured in a cell incubator at 5% CO2 and 37° C. overnight. • 10 μL of 10× test compound was added to the 90 μL cell culture 96-well plate; to the cell positive control well was added 10 μL of 5% DMSO culture solution; and the plate was cultured in a cell incubator at 5% CO2 and 37° C. for 2 hours. • The medium in the 96-well plate was removed; 50 μL of 1× cell lysis buffer was added to each well; the plate was placed in a microplate shaker; and lysis under shaking was carried out at 900 rpm at room temperature for 1 hour. • 16 μL of the lysis buffer in the 96-well plate was taken and transferred to a 384-well plate, and centrifugation was carried out at 1000 rpm for 30 seconds; then 4 μL of pERK1/2 detection solution was added to each well and centrifugation was carried out at 1000 rpm for 30 seconds; and the 384-well plate was sealed with a sealing membrane and incubated at 25° C. on a low-speed shaker (100 rpm) in the dark for 2 hours. • The fluorescence value (relative fluorescence units, RFU) of each well was detected on EnVision2104 (emission 1: 665 nm, emission 2: 615 nm).
wherein • the fluorescence ratio of compound well refers to the fluorescence ratio of the well containing the test compounds; • the fluorescence ratio of negative control well refers to the fluorescence ratio of the background containing the cell lysis buffer and no Miapaca2 cells; • the fluorescence ratio of positive control well refers to the fluorescence ratio of the well containing 0.5% DMSO and Miapaca2 cells.
(§1) IC50 values were calculated following formula 205: y=A+((B−A)/(1+((C/X)^D))), by using the XL-Fit 5.0 software.

Assay [2] concerns the target Human full-length SHP2 recombinant protein (Homo sapiens (Human), UniProt Q06124). The assay is described as follows: Assay of full-length SHP2 phosphatase activity. It counts as biochemical. The following applies: DiFMUP substrate, with activating peptide. Here is the method: Example 2 Assay of Full-Length SHP2 Phosphatase Activity
1. Reagents and Materials • Human full-length SHP2 recombinant protein: BPS Bioscience, Cat #79018; • SHP2 substrate DiFMUP (1 mM): BPS Bioscience, Cat #79769; • SHP2 activating peptide (100 μM): BPS Bioscience, Cat #79319-2; • DTT: Merck, Cat #DTT-RO; • 384-well plate: Corning, Cat #3575; • 96-well plate: Thermo Fisher Scientific, Cat #249952; • Instrument: EnVision 2104, PerkinElmer.
2. Preparation of Reaction Solutions
The test compound was dissolved in DMSO and diluted with DMSO to 100.0 μM, and the compound was further 3-fold diluted with DMSO to: 100.00, 33.33, 11.11, 3.70, 1.23, 0.41, 0.14 and 0.05 μM.
3. Experimental Steps • To the corresponding wells of the 384-well plate was added 2.5 μL of 4× test compound or 2.5 μL of 4% DMSO solution, and centrifugation was carried out at 1000 rpm for 30 seconds. • To the test compound well and positive control well was added 2.5 μL of 4× mixed solution of SHP2 enzyme/activating peptide while to the negative control well was added 2.5 μL of 1× enzymatic reaction buffer; centrifugation was carried out at 1000 rpm for 30 seconds and incubation was carried out at room temperature for 30 minutes. • To each well was added 5 μL of 2×DiFMUP substrate to initiate the enzymatic reaction, then the plate was transiently oscillated and centrifuged at 1000 rpm for 30 seconds, and the 384-well plate was sealed with a sealing membrane and incubated at 25° C. on a low-speed shaker (100 rpm) in the dark for 60 minutes. • The fluorescence value (relative fluorescence units, RFU) of each well was detected on EnVision2104 (excitation: 355 nm, emission: 460 nm).
wherein • the RFU of compound well refers to the fluorescence reading at 460 nm of the well containing the test compounds; • the RFU of negative control well refers to the fluorescence reading at 460 nm of the background well containing 1% DMSO and the enzymatic reaction buffer; • the RFU of positive control well refers to the fluorescence reading at 460 nm of the well containing 1% DMSO and the mixed solution of SHP2 enzyme/activating peptide.
as §1

Where [3] appears, read: pERK1/2 (Thr202/Tyr204) HTRF, 2 hours.
[4] abbreviates: Homo sapiens, MIA PaCa-2, 2 h, pERK1/2 (Thr202/Tyr204) HTRF.

Human full-length SHP2 recombinant protein, sequence (Q06124 whole entry): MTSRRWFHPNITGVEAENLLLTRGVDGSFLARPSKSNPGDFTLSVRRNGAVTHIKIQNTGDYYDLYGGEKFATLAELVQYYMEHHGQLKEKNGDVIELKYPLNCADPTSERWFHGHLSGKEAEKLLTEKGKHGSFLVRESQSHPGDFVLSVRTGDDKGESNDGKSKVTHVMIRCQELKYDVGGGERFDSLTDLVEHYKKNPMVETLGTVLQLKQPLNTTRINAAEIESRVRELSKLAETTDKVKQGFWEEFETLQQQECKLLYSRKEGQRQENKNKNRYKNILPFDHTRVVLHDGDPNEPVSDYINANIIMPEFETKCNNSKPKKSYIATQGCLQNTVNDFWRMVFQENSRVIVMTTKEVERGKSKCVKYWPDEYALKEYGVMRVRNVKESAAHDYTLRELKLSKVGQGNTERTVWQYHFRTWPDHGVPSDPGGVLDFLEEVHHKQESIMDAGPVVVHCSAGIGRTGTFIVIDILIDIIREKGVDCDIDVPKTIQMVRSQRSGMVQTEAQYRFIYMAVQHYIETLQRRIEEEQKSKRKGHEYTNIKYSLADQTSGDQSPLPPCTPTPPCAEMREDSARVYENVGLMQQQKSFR

As to `C#Cc1ccc2c(c1)[C@@H](N)C1(CCN(c3nc(C)n(-c4ccc(F)cc4Cl)c(=O)c3C)CC1)C2` (atropisomer, axis not shown) [Compound 102], the IC50 in assay [1] (setting [3]) came to 12 nM; in assay [2], 2 nM. On to `C#Cc1ccc2c(c1)[C@@H](N)C1(CCN(c3cc(=O)n(-c4cccc(C#N)c4Cl)c(C)n3)CC1)C2` [Compound 267], for which the half-maximal inhibitory concentration (IC50) in assay [1] (setting [3]) is over 1000 nM.

The compound `Cc1nc(N2CCC3(CC2)Cc2ccc(C#CCN(C)C)cc2[C@H]3N)cc(=O)n1-c1cccc(Cl)c1Cl` [Compound 52] yielded a half-inhibitory concentration (IC50) in assay [1] (setting [4]) of 37 nM. As to `C#Cc1ccc2c(c1)[C@@H](N)C1(CCN(c3cc(=O)n(-c4ccc(F)cc4F)c(C)n3)CC1)C2` [Compound 41], the values for the half-inhibitory concentration (IC50) in assay [1] (setting [4]) and in assay [2] were 115 nM and 21 nM, respectively. For `C#Cc1cc(F)c2c(c1)[C@@H](N)C1(CCN(c3nc(C)n(-c4cccc(Cl)c4Cl)c(=O)c3F)CC1)C2` [Compound 167] the same measures were 124 nM and 25 nM. In the case of `COCC#Cc1ccc2c(c1)[C@@H](N)C1(CCN(c3cc(=O)n(-c4ccc(C#N)c(O)c4F)c(C)n3)CC1)C2` [Compound 186], the values for the IC50 in assay [1] (setting [4]) and in assay [2] were over 1000 nM and 42 nM, respectively. On the same counts, the results for `C#Cc1ccc2c(c1)[C@@H](N)C1(CCN(c3cc(=O)n(-c4ccnc(Cl)c4)c(C)n3)CC1)C2` [Compound 60] are over 1000 nM and 13 nM. On the same counts, the results for `C#Cc1ccc2c(c1)CC1(CCN(c3ncc(Sc4ccnc(NCCOC)c4Cl)c4nccn34)CC1)[C@@H]2N` [Compound 3] are 81 nM and 9 nM.

Take `C#Cc1ccc2c(c1)[C@@H](N)C1(CCN(c3nc(C)c(Sc4ccnc(N)c4Cl)n4cncc34)CC1)C2` [Compound 180]: the IC50 stood at 251 nM in assay [1] (setting [4]) and 13 nM in assay [2].

Turning to `C#Cc1ccc2c(c1)[C@@H](N)C1(CCN(c3cc(=O)n(-c4ccc(F)c(OC)c4)c(C)n3)CC1)C2` [Compound 29], the concentration for half-maximal inhibition (IC50) stood at 489 nM in assay [1] (setting [4]) and 25 nM in assay [2]. In the case of `Cc1c(N2CCC3(CC2)Cc2ccc(C#CCN(C)C)cc2[C@H]3N)nc(C)n(-c2cccc(Cl)c2Cl)c1=O` (atropisomer, axis not shown) [Compound 51], the IC50 came to 21 nM in assay [1] (setting [3]) and 1 nM in assay [2]. Regarding `Cc1nc(N2CCC3(CC2)Cc2ccc(C#CCO)cc2[C@H]3N)cc(=O)n1-c1cc(Cl)ccc1Cl` [Compound 85], the IC50 in assay [1] (setting [4]) worked out at 785 nM; in assay [2], 50 nM.

For the compound `C#Cc1ccc2c(c1)CC1(CCN(c3ncc(Sc4ccnc(NCCO)c4Cl)c4nccn34)CC1)[C@@H]2N` [Compound 7], the IC50 in assay [1] (setting [4]) came to 28 nM; in assay [2], 10 nM. For `C#Cc1cc2c(cc1F)CC1(CCN(c3cc(=O)n(-c4cccc(Cl)c4Cl)c(C)n3)CC1)[C@@H]2N` [Compound 228] the same measures were over 1000 nM and 203 nM. For `COCC#Cc1ccc2c(c1)[C@@H](N)C1(CCN(c3ncc(Sc4ccnc(N)n4)nc3CO)CC1)C2` [Compound 87, (S)-(3-(1-amino-6-(3-methoxyprop-1-yn-1-yl)-1,3-dihydrospiro[indene-2,4′-piperidin]-1′-yl)-6-((2-aminopyrimidin-4-yl)thio)pyrazin-2-yl)methanol] the same measures were 2 nM and 1 nM. Turning to `C#Cc1ccc2c(c1)[C@@H](N)C1(CCN(c3cc(=O)n(-c4ccc(F)c(F)c4Cl)c(C)n3)CC1)C2` (atropisomer, axis not shown) [Compound 114], the IC50 came to 284 nM in assay [1] (setting [3]) and 53 nM in assay [2]. In the case of `C#Cc1ccc2c(c1)OC1(CCN(c3cc(=O)n(-c4cccc(Cl)c4Cl)c(C)n3)CC1)[C@@H]2N` (atropisomer, axis not shown) [Compound 28], the 50% inhibitory concentration (IC50) in assay [2] is over 1000 nM. As for `C#Cc1ccc2c(c1)[C@@H](N)C1(CCN(c3nc(C)n(-c4ccc(F)cc4Cl)c(=O)c3C)CC1)C2` (atropisomer, axis not shown) [Compound 103], the IC50 in assay [1] (setting [3]) came out at 80 nM; in assay [2], 17 nM.

As for `C#Cc1ccc2c(c1)OC1(CCN(c3cc(=O)n(-c4cccc(Cl)c4)c(C)n3)CC1)[C@@H]2N` [Compound 18], the half-inhibitory concentration (IC50) in assay [2] is over 1000 nM. `C#Cc1ccc2c(c1)[C@@H](N)C1(CCN(c3cc(=O)n(-c4cc(OC)ccc4Cl)c(C)n3)CC1)C2` [Compound 58]: inhibition in assay [1] (setting [3]) was half-maximal at 260 nM (IC50). Consider `C#Cc1ccc2c(c1)OC1(CCN(c3cc(=O)n(-c4ccccc4)c(C)n3)CC1)[C@@H]2N` [Compound 19], for which the IC50 in assay [2] was over 1000 nM. The same measure, in the same setting: the value for `COCC#Cc1ccc2c(c1)[C@@H](N)C1(CCN(c3cc(=O)n(-c4cccc(Cl)c4Cl)c(C(F)(F)F)n3)CC1)C2` [Compound 130] was over 1000 nM; that for `C#Cc1ccc2c(c1)OC1(CCN(c3nc(C)n(-c4ccc(F)c(F)c4)c(=O)c3C)CC1)[C@@H]2N` [Compound 14] was over 1000 nM. Still for that read-out and setting: the value for `C#Cc1ccc2c(c1)OC1(CCN(c3cc(=O)n(-c4ccc(F)c(F)c4)c(C)n3)CC1)[C@@H]2N` [Compound 13] was over 1000 nM; that for `C#Cc1ccc2c(c1)[C@@H](N)C1(CCN(c3cc(=O)n(-c4c(Cl)cccc4Cl)c(C)n3)CC1)C2` [Compound 33] was 310 nM; that for `C#Cc1ccc2c(c1)CC1(CCN(c3cc(=O)n(-c4cccc(Cl)c4Cl)c(C)n3)CC1)[C@@H]2N` (atropisomer, axis not shown) [Compound 24] was 412 nM.

In the case of `Cc1nc(N2CCC3(CC2)Cc2ccc(SC4COC4)cc2[C@H]3N)cc(=O)n1-c1cccc(Cl)c1Cl` [Compound 81, (S)-6-(1-amino-6-(oxetan-3-ylthio)-1,3-dihydrospiro[indene-2,4′-piperidin]-1′-yl)-3-(2,3-dichlorophenyl)-2-methylpyrimidin-4(3H)-one], half-maximal inhibition in assay [1] (Homo sapiens, MIA PaCa-2, pERK1/2 (Thr202/Tyr204) HTRF, 2 hours) (IC50) was put at 89 nM. Consider `C#Cc1ccc2c(c1)CC1(CCN(c3cc(=O)n(-c4ccc(F)c(F)c4)c(C)n3)CC1)[C@@H]2N` [Compound 21], for which the IC50 in assay [2] amounted to 541 nM.

As for `C#Cc1ccc2c(c1)CC1(CCN(c3cc(=O)n(-c4ccc(Cl)cc4)c(C)n3)CC1)[C@@H]2N` [Compound 22], the IC50 in assay [2] was 348 nM. Same read-out and setting: the result for `C#Cc1ccc2c(c1)CC1(CCN(c3cc(=O)n(-c4ccccc4)c(C)n3)CC1)[C@@H]2N` [Compound 23] reads 757 nM. With `C#Cc1ccc2c(c1)[C@@H](N)C1(CCN(c3cc(=O)n(-c4ccc(F)c(F)c4Cl)c(C)n3)CC1)C2` [Compound 77], the 50% inhibitory concentration (IC50) in assay [1] (setting [3]) came to 56 nM.
